Laboratory results from US8519149B2, “Tricyclic compounds as mPGES-1 inhibitors” (Glenmark Pharmaceuticals S.A., priority 2010, dated 2013).

Biological target: T1, Recombinant human mPGES-1 (Homo sapiens, UniProt O14684)
T1 sequence (O14684 1-152): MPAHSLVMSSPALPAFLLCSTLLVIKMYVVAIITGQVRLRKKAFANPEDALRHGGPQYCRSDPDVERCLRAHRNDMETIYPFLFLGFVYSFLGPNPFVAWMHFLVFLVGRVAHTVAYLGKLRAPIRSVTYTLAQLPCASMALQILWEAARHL
Assay: In-vitro mPGES-1 enzyme inhibition assay (PGE2 formation from PGH2, HTRF detection)
Type: biochemical
Conditions: for inhibition at 1 µM: 1 μM test compound, read-out: Percentage inhibition at 1 μM; for inhibition at 1 µM / inhibition at 10 µM: recombinant human mPGES-1 microsomal fraction; for inhibition at 10 µM: 10 μM test compound, read-out: Percentage inhibition at 10 μM; for IC50: class symbols, selected examples
How it was run: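 IC50 values were derived by nonlinear regression of percent inhibition relative to enzyme reactions run without inhibitor. PGE2 formed from PGH2 with GSH was quantified by antibody-based HTRF after stannous chloride quench. Enzyme source was human mPGES-1 microsomes at 40-60 μg/mL protein; DMSO 0.5% (v/v).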

| Compound | inhibition at 1 µM [%] | inhibition at 10 µM [%] | IC50 [nM] |
| --- | --- | --- | --- |
| CC1(C)Cc2c(c(C(=O)NC3(c4cccc(C(F)(F)F)c4)CC3)cc3nc(Nc4c(F)cccc4Cl)[nH]c23)O1 [Example-127, 2-((2-Chloro-6-fluorophenyl)amino)-7,7-dimethyl-N-(1-(3-(trifluoromethyl)phenyl)cyclopropyl)-7,8-dihydro-1H-benzofuro[4,5-d]imidazole-5-carboxamide] | 94.7 | 99 | < 50 |
| Cc1ccc(NC(=O)c2cc3nc(Nc4c(Cl)cncc4Cl)[nH]c3c3c2OC(C)(C)C3)c(Cl)c1 [Example-198, N-(2-Chloro-4-methylphenyl)-2-((3,5-dichloropyridin-4-yl)amino)-7,7-dimethyl-7,8-dihydro-1H-benzofuro[4,5-d]imidazole-5-carboxamide] | 98.7 | 99.7 | < 50 |
| CC1(C)Cc2c(c(C(=O)Nc3ccc(C(F)(F)F)cc3F)cc3nc(Nc4c(Cl)cncc4Cl)[nH]c23)O1 [Example-194, 2-((3,5-Dichloropyridin-4-yl)amino)-N-(2-fluoro-4-(trifluoromethyl)phenyl)-7,7-dimethyl-7,8-dihydro-1H-benzofuro[4,5-d]imidazole-5-carboxamide] | 99.2 | 100 | – |
| Cc1nc2c(o1)c(C(=O)Nc1cc(C(F)(F)F)ccc1F)cc1nc(Nc3c(F)cccc3Cl)[nH]c12 [Example-186, 7-((2-Chloro-6-fluorophenyl)amino)-N-(2-fluoro-5-(trifluoromethyl)phenyl)-2-methyl-8H-imidazol[4′,5′:5,6]-benzo[1,2-d]oxazole-4-carboxamide] | 98.6 | 98.5 | < 50 |
| Cc1cc2c(o1)c(C(=O)NCc1ccc(F)cc1)cc1nc(Nc3c(Cl)cncc3Cl)[nH]c12 [Example-22, 2-[(3,5-Dichloropyridin-4-yl)amino]-N-(4-fluorobenzyl)-7-methyl-1H-furo[3,2-e]benzimidazole-5-carboxamide] | 85.8 | 98.8 | – |
